One data set concerns C57BL/6 mice. Kind of data set: Head twitch response (HTR) in mice. Format: in vivo. The procedure: Animals. Adult male C57BL/6 mice, aged 8 weeks (body weight 20-25 g) were used in these experiments. Animals were housed under controlled temperatures and 12-hour light/dark cycles (lights on between 07:00-19:00 h), with ad libitum food and water. The protocol was approved by the Eurofins Advinus Institutional Animal Care and Use Committee. This study was carried out in strict accordance with the recommendations in the Guide for the Care and Use of Laboratory Animals of the National Institutes of Health. All efforts were made to minimize suffering.
Drugs and Drug administration. Compounds 3 and 4 were prepared as described above. All other compounds were commercially obtained. Test compounds were used as the hydrogen fumarate (1 and 2) or hydrochloride (DOI, 3, and 4) salts. Drugs were dissolved in a vehicle consisting of normal saline and administered subcutaneously (SC) in a volume of 10 ml/kg. Test compounds were administered at 5 doses per compound (0.1 to 100 mg/kg, as indicated, calculated based on the free base) using N=6 animals/group. […] For blockade experiments, MDL100907 (0.1 mg/kg, SC) was administered 10 mins prior to the test compound.
Procedure. Mice were administered one dose of a test drug (or vehicle) s.c. and immediately placed into a small open field for behavioral observation. Animals were observed continuously for 20 mins and the number of HTRs were counted by an observer blind to the treatment condition.
Statistical analysis. The data points shown in Table 11 are the mean ±standard error of the mean (SEM). Analysis was performed using GraphPad Prism 9.

Data set [1] in a line: Metabolic stability in human liver microsomes (HLM). The format is in vitro ADME. To be noted: both sexes, pooled human liver microsomes, pH 7.4, NADPH. The procedure:
HLM Stability. Pooled HLM from adult male and female donors (Corning 452117) were used. Microsomal incubations were carried out in multi-well plates. […] Control incubations were performed by replacing the NADPH-cofactor system with PBS. Test compounds (1 μM, final solvent concentration 1.0%) were incubated with microsomes at 37° C. with constant shaking. Six time points over 60 minutes were analyzed, with 60 μL aliquots of the reaction mixture being drawn at each time point.
A general note: Liver microsomes are a subcellular fraction often used to study metabolism.

The nature of data set [2]: Metabolic stability in mouse liver microsomes (MLM). The settings on record: CD-1, mouse, pooled mouse liver microsomes, pH 7.4, NADPH. Format: in vitro ADME, CD-1 mice. As to the method:
MLM Stability. Pooled MLM from CD-1 mice (BIOIVT M00501) were used. Microsomal incubations were carried out in multi-well plates. […] Control incubations were performed by replacing the NADPH-cofactor system with PBS. Test compounds (1 μM, final solvent concentration 1.0%) were incubated with microsomes at 37° C. with constant shaking. Six time points over 60 minutes were analyzed, with 60 μL aliquots of the reaction mixture being drawn at each time point.

A short description of data set [3]: Metabolic stability in rat liver microsomes (RLM). The format is in vitro ADME. To be noted: both sexes, pooled rat liver microsomes, pH 7.4, NADPH. As to the method: RLM Stability. Pooled RLM from adult male and female donors (Xenotech R1000) were used. Microsomal incubations were carried out in multi-well plates. […] Control incubations were performed by replacing the NADPH-cofactor system with PBS. Test compounds (1 μM, final solvent concentration 1.0%) were incubated with microsomes at 37° C. with constant shaking. Six time points over 60 minutes were analyzed, with 60 μL aliquots of the reaction mixture being drawn at each time point.

Data set [4] deals with monoamine oxidase A and B (MAO-A and MAO-B). Kind of data set: Stability in the presence of monoamine oxidases (human liver mitochondria). The format is in vitro ADME. The procedure:
Liver Mitochondria Incubations. Human liver mitochondria (Xenotech H0610.M) were used. Mitochondrial incubations were carried out in multi-well plates. […] Six time points over 60 minutes were analyzed.

The next data set deals with 5-HT2A (Homo sapiens (Human), UniProt P28223). The data set can be described thus: FLIPR Ca2+ flux agonist assay, 5-HT2A. The format is cell-based. The settings on record: HEK293. The procedure: (§1) A solution of 250 mM probenecid in 1 mL FLIPR assay buffer was prepared fresh. This was combined with a fluorescent dye (Fluo-4 Direct™) to make a final assay concentration of 2.5 mM. […] The fluorescent dye was then added to the assay plate along with assay buffer to a final volume of 40 μL. The cell plate was incubated for 50 min at 37° C. and 5% CO2 and placed into the FLIPR Tetra along with the compound plate. 10 μL of references and compounds were then transferred from the compound plate into the cell plate and the fluorescent signal was read.

Another data set addresses 5-HT2B (Homo sapiens (Human), UniProt P41595). Kind of data set: FLIPR Ca2+ flux agonist assay, 5-HT2B. The settings on record: Ca2+ flux, HEK293. The format is cell-based. The procedure:
as §1
Background: Calcium assays in cells follow changes in intracellular calcium, usually with a dye or a luminescent sensor.

The next data set concerns the target 5-HT1A (Homo sapiens (Human), UniProt P08908). Kind of data set: FLIPR Ca2+ flux agonist assay, 5-HT1A. Format: cell-based. To be noted: Ca2+ flux, CHO cells. The procedure:
as §1

Data set [5] is described as follows: Stability in mouse brain homogenate. The format is in vitro ADME, CD-1 mice. As to the method:
Mouse Brain Homogenate Stability. Frozen mouse brain homogenate (pooled from male CD-1 mice, BioreclamationIVT, MSE00BRAINMZA) was thawed in a water bath at 37° C. immediately prior to use. Positive controls and test compounds (final concentration in incubation medium=1 μM for test compounds and 2 μM for controls, all with 2% DMSO) were incubated in duplicate for each time point (0, 10, 30, 60, and 120 min) in the mouse brain homogenate at a total reaction volume of […] at 37° C. At the end of each incubation period, reactions were immediately quenched with 400 μL of acetonitrile containing internal standard (200 ng/mL tolbutamine and 200 ng/ml labetalol) and mixed thoroughly. Plates were then sealed, shaken for 20 min, and centrifuged at 4,000 rpm and 4° C. for 20 min. Aliquots of 50 μL of each supernatant were diluted into 100 μL of water and the mixtures were then shaken again for 10 min.

Data set [6] is described as follows: Stability in rat brain homogenate. The format is in vitro ADME, Sprague Dawley rats. The procedure:
Rat Brain Homogenate Stability. Frozen rat brain homogenate (pooled from male Sprague Dawley rats, BioreclamationIVT, RATOOBRAINMZA) was thawed in a water bath at 37° C. immediately prior to use. Positive controls and test compounds (final concentration in incubation medium=1 μM for test compounds and 2 μM for controls, all with 2% DMSO) were incubated in duplicate for each time point (0, 10, 30, 60, and 120 min) in the rat brain homogenate at a total reaction volume of 100 μL at 37° C. At the end of each incubation period, reactions were immediately quenched with 400 μL of acetonitrile containing internal standard (200 ng/ml tolbutamine and 200 ng/ml labetalol) and mixed thoroughly. Plates were then sealed, shaken for 20 min, and centrifuged at 4,000 rpm and 4° C. for 20 min. Aliquots of 50 μL of each supernatant were diluted into 100 uL of water and the mixtures were then shaken again for 10 min.

Data set [7] concerns the target serotonin transporter (SERT) (Homo sapiens (Human), UniProt P31645). Kind of data set: SERT fluorescent substrate uptake inhibition in transfected HEK293 cells. Format: cell-based. To be noted: HEK293 cells expressing SERT. The procedure:
SERT Uptake Inhibition. The ability of test compounds to block monoamine uptake by SERT was determined using the Neurotransmitter Transporter Uptake Assay Kit manufactured by Molecular Devices (Cat #R8173). Briefly, stably transfected HEK293 cells expressing SERT were grown and plated into 384-well plates at a concentration of 20,000 cells per well. Plates were then incubated for 16-20 h at 37° C. and 5% CO2. The medium was then aspirated and replaced with 25 μL of assay buffer (20 mM HEPES in HBSS, containing 0.1% BSA) containing the test compounds at the appropriate concentrations. Plates were then centrifuged at 300 rpm for 15 s and then incubated at 37° C. for 30 minutes. At this time, 25 μL of the proprietary fluorescent dye solution was added, the plates were incubated at 37°° C. for 60 minutes, and then fluorescence was quantified on a plate reader (excitation wavelength =440 nm, emission wavelength=520 nm). The proprietary dye solution contains a mixture of 1) a fluorescent dye (dye 1) that mimics the endogenous substrate of SERT and is thereby actively transported to the intracellular compartment in the absence of an inhibitor and 2) a masking dye that inhibits the fluorescence of dye 1 in the extracellular compartment. Therefore, the overall fluorescence of the system increases as the fluorescent dye is transported into the cells.

The mark [8] stands for this setting: human liver mitochondria, pH 7.4, human mitochondrial preparation, 1 μM.

We go through three compounds from US20240317683A1, “METHODS OF TREATING MOOD DISORDERS” (priority 2020, published 2024).

As usually defined, the half-life is the time needed for the level to fall by half in the phase considered. The microsomal CLint is the capacity of the preparation to metabolise the compound, expressed as a volume cleared per time. In general, IC50 refers to the concentration that inhibits the measured activity by half.

Sequence of 5-HT2B (P41595 whole entry, looked up, species assumed): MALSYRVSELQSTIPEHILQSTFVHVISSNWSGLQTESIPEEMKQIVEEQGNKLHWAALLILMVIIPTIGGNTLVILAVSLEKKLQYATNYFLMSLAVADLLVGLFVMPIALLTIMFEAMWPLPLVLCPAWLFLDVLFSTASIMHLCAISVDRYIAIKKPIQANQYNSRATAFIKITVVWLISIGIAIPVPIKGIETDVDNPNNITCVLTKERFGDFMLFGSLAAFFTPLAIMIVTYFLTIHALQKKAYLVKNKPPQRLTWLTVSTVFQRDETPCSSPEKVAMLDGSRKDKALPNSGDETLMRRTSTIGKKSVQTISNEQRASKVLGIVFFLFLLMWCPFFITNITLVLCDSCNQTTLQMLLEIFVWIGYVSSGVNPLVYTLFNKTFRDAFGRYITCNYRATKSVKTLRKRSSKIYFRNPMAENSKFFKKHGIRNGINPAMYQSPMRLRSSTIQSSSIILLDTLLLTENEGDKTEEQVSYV

`COc1cccc([C@H](O)C2CCN(CCc3ccc(F)cc3)CC2)c1OC` [MDL100907, reference compound]: the “blockade of the HTR induced by Compound 4” value with C57BL/6 mice (pretreatment 0.1 mg/kg SC, 10 mins prior to Compound 4) was “completely blocked”.
For `COc1ccc2[nH]cc(CCN(C)C)c2c1` [Compound 5-MeO-DMT, 5-methoxy-N,N-dimethyltryptamine, reference compound], the half-life at 1 μM in data set [1] is 13.6 min; in data set [2], 48.8 min; in [3] it was 14 min; in data set [4] (setting [8]) it was 52.9 min; in [5] (male, CD-1, mouse brain homogenate, 1 μM, 37° C.), more than 289 min; in [6] (male, Sprague Dawley, rat brain homogenate, 1 μM, 37° C.) it was 14.4 min. Besides, the microsomal CLint at 1 μM in data set [2] is 28.4 µL/min/mg; in data set [3] it was 98.8 µL/min/mg; in [4] (setting [8]), 43.6 µL/min/mg. For the same compound, the “MAO stability (in words)” value in data set [4] (human liver mitochondria preparation) was “highly metabolized”. Also, the “Remaining (t = 60 min)” value in data set [4] (human mitochondrial preparation, 1 μM, 60 min) was found to be 47.1%. The “5-HT2A % Act @ Max Dose” value on 5-HT2A came out at 106%. On 5-HT2B, the “5-HT2B % Act @ Max Dose” value is reported as 20.5%. The “5-HT1A % Act @ Max Dose” value on 5-HT1A turned out to be 78.8%. Further, in data set [5], the “stability in mouse brain homogenate (in words)” value is “high stability”. For the same compound, the “% Compound Remaining (after 120 min)” value in data set [5] (mouse brain homogenate, 1 μM, 37° C.) is given as 91.2%; in [6] (rat brain homogenate, 1 μM, 37° C.) it was 0.3%. The “stability in rat brain homogenate (in words)” value in data set [6] is given as “highly unstable”. The IC50 in data set [7] was determined as 7.02 µM. In addition, the “SERT % Inhibition @ Max Dose” value in data set [7] is listed as 68.07%.
With `COc1cc(CC(C)N)c(OC)cc1I` (stereo not shown) [DOI, 4-iodo-2,5-dimethoxyamphetamine, reference compound], the “maximal effect in HTR” value in the data set on C57BL/6 mice (SC, maximal over tested doses) was 35.6 head twitches/20 min.
